# How the values were obtained:
# [1] = tested on: porcine (Sus scrofa) liver CES (SsCES); assay: Inhibition of SsCES (spectrophotometric, 4-NPA substrate); assay type: biochemical; details: mean ± SEM, n = 3; for Inhibition of SsCES, % inhibition at 20 μM: compound 20 μM, n.a. = not active
# Text: (§1) In these experiments, human (Homo sapiens) erythrocyte AChE (HsAChE), equine (Equus caballus) serum BChE (EcBChE), and porcine (Sus scrofa) liver CES (SsCES) were used because of their ready availability, relatively low cost, and high sequence homology of EcBChE and SsCES to the corresponding human enzymes.
# Although the dominant carboxylesterase in porcine liver is CES1 [64], the preparation sourced from Sigma-Aldrich is not a purified or recombinant CES1. Therefore, we have designated the preparation used in our experimental studies as SsCES. However, in computational molecular docking studies, it is necessary to choose a single defined protein as the docking target. Thus, the logical choice for our computational studies of CES was the most abundant and best characterized isoform found in porcine liver, which is SsCES1.
# (§2) Enzymes, substrates, and reference compounds were sourced from Sigma-Aldrich (St. Louis, MO, USA). Enzyme activity was measured spectrophotometrically according to [91] using ATCh iodide, BTCh iodide, and 4-NPA as substrates for HsAChE, EcBChE, and SsCES, respectively. Experimental conditions included a K/Na-phosphate buffer (100 mM), at 25 °C, with pH 7.5 for AChE and BChE assays, and pH 8.0 for CES assays. Measurements were conducted on a BioRad Benchmark Plus microplate spectrophotometer (Hercules, CA, USA). Test compounds were dissolved in DMSO with a final solvent concentration of 2% (v/v) in the incubation mixture.
# [2] = biological target: T1, human (Homo sapiens) erythrocyte AChE (HsAChE) (Homo sapiens, UniProt P22303); assay: Inhibition of HsAChE (spectrophotometric, ATCh iodide substrate); assay type: biochemical; details: mean ± SEM, n = 3; for Inhibition of HsAChE, % inhibition at 20 μM: compound 20 μM, n.a. = not active
# T1 construct: human (Homo sapiens) erythrocyte AChE (HsAChE); purchased Sigma-Aldrich; host or cells: human erythrocytes
# Method: as §1, §2
# [3] = ABTS radical cation scavenging activity assay;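 as to Exp. ABTS, TEAC: same experimental ABTS TEAC values reprinted in Table 4 beside calculated BDE and IP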; details: for IC50: ABTS^•+ 100 μM; for IC50 / ABTS^•+-Scavenging Activity, TEAC: ethanol, 1 h; for Exp. ABTS, TEAC: Ethanol, Table 4; for ABTS^•+-Scavenging Activity, TEAC: Trolox equivalent antioxidant capacity, mean ± SEM, n = 3
# [4] = biological target: T2, human β-amyloid (1–42) (HsAβ42) (Homo sapiens, UniProt P05067); assay: Inhibition of HsAβ42 self-aggregation (thioflavin T fluorescence); assay type: biochemical; details: HsAβ42 50 µM, compound 100 µM, 24 h, 37 °C; n.a. = not active
# T2 construct: purchased AnaSpec Inc
# Method: The potential of compounds from all three groups (1a-e, 5a-e, 7a-d) to inhibit HsAβ42 self-aggregation was evaluated using a Thioflavin T (ThT) fluorescence assay.
# Inhibition of HsAβ42 self-aggregation by test compounds was studied using the thioflavin T (ThT) fluorescence method with minor modifications as described in detail in [79]. Lyophilized HFIP-pretreated HsAβ42 (AnaSpec Inc., Fremont, CA, USA, 0.5 mg) was dissolved in DMSO to obtain a stable 500 μM solution. The samples of 50 μM HsAβ42 in 215 mM Na-phosphate buffer pH 8.0 were incubated for 24 h at 37 °C in the absence or presence of 100 μM test compounds. Myricetin in the same concentration was used as a reference. After incubation, 5 μM ThT in 50 mM glycine-NaOH buffer pH 8.5 was added, and the fluorescence was measured at 440 nm (exc.) and 485 nm (emis.) with a FLUOStar Optima microplate reader. Blanks consisted of 215 mM Na-phosphate buffer, pH 8.0, 20% (v/v) DMSO or test compounds, respectively. The inhibition (%) of HsAβ42 self-aggregation by the test compounds was calculated.
# [5] = Ferric reducing antioxidant power (FRAP) assay;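 as to Exp. FRAP, TE: same experimental FRAP TE values reprinted in Table 4 beside calculated BDE and IP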; details: for Ferric Reducing Antioxidant Power, TE: Trolox equivalents, acetate buffer pH 3.6, 1 h, 37 °C; for Exp. FRAP, TE: Water, Table 4
# [6] = biological target: T3, peripheral anionic site (PAS) of Electrophorus electricus AChE (EeAChE) (Electrophorus electricus, UniProt O42275); assay: Propidium displacement from the EeAChE PAS (fluorescence); assay type: binding; details: compound concentration 20 µM; EeAChE 7 μM, propidium iodide 8 μM, Tris-HCl pH 8.0; n.a. = not active
# T3 construct: purchased Sigma-Aldrich type VI-S
# Method: A fluorescence-based assay assessed the ability of test compounds to competitively displace propidium iodide from AChE’s PAS [65, 93]. […] EeAChE (7 μM) was incubated with 20 μM test compounds in Tris-HCl buffer (pH 8.0) for 15 min, followed by addition of propidium iodide (8 μM) as described in detail in [95]. Fluorescence readings (530 nm excitation, 600 nm emission) were obtained using a FLUOStar Optima microplate reader (LabTech, Ortenberg, Germany). Displacement (%) was calculated.
# [7] = biological target: T4, equine (Equus caballus) serum BChE (EcBChE) (Equus caballus, UniProt P81908); assay: Inhibition of EcBChE (spectrophotometric, BTCh iodide substrate); assay type: biochemical; details: mean ± SEM, n = 3; for IC50: K/Na-phosphate buffer pH 7.5, 25 °C; for Inhibition of EcBChE, % inhibition at 20 μM: compound 20 μM, n.a. = not active
# T4 construct: equine (Equus caballus) serum BChE (EcBChE); purchased Sigma-Aldrich; host or cells: horse serum
# Method: as §1, §2
# T4 sequence (P81908 whole entry): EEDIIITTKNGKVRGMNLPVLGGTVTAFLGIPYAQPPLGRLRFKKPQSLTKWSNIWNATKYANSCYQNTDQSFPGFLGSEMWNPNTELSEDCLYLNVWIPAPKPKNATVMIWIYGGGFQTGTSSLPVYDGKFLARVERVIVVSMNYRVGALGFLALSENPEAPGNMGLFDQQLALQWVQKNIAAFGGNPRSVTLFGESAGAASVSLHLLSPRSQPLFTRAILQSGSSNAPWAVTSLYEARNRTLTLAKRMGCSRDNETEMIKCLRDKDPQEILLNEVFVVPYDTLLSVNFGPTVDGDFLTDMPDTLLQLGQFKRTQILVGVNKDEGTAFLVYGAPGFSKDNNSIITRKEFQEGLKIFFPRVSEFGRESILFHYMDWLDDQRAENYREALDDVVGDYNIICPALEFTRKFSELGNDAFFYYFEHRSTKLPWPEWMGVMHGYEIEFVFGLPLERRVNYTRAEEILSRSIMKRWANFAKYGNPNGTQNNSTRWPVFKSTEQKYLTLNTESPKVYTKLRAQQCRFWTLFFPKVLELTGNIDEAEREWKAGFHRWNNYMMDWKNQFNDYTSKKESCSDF
# T2 sequence (P05067 672-713 limits assumed): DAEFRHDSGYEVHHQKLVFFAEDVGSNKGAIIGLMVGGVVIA
# T3 sequence (O42275 24-633): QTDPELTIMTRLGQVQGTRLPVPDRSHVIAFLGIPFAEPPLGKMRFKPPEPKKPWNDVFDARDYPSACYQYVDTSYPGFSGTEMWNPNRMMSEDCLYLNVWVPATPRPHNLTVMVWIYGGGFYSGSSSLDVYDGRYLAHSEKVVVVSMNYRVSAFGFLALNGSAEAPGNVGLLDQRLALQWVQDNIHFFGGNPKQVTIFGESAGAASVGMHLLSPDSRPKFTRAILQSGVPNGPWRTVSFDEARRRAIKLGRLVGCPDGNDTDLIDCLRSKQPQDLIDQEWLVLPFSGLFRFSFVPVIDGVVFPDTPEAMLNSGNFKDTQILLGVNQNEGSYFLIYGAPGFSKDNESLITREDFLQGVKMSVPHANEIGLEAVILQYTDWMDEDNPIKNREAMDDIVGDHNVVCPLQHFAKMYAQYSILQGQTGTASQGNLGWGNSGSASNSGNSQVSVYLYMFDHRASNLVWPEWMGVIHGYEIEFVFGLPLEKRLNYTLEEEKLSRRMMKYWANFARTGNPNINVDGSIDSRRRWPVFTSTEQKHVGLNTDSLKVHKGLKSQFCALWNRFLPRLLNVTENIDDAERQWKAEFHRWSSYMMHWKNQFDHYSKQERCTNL
# T1 sequence (P22303 32-617 isoform P22303-2 limits assumed): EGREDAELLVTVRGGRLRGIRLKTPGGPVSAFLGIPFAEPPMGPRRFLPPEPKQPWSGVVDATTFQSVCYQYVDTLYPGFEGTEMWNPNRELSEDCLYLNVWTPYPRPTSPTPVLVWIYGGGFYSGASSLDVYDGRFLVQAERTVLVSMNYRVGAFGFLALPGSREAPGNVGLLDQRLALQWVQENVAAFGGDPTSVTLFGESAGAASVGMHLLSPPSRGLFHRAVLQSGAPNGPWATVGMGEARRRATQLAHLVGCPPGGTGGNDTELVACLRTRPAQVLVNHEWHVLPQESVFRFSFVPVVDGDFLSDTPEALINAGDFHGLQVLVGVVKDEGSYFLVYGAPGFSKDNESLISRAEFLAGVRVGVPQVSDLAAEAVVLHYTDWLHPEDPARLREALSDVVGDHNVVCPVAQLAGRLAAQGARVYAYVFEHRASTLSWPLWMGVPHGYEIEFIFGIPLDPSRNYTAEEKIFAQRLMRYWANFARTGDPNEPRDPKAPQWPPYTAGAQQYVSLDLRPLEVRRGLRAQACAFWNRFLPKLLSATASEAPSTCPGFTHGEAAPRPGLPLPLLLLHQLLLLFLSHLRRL
SMILES,"IC50 ([1]; K/Na-phosphate buffer pH 8.0, 25 °C) [µM]","Inhibition of SsCES, % inhibition at 20 μM [1] [%]","IC50 ([2]; K/Na-phosphate buffer pH 7.5, 25 °C) [µM]",IC50 [3] [µM],"Exp. ABTS, TEAC [3]","ABTS^•+-Scavenging Activity, TEAC [3]","HsAβ42 self-Aggregation Inhibition, (%) [4] [%]","Ferric Reducing Antioxidant Power, TE [5]","Propidium Displacement, (%) [6]",IC50 [7] [µM],"Exp. FRAP, TE [5]","Inhibition of HsAChE, % inhibition at 20 μM [2] [%]","Inhibition of EcBChE, % inhibition at 20 μM [7] [%]"
"O=[N+]([O-])c1ccc(OP(=O)(O)Oc2ccc([N+](=O)[O-])cc2)cc1 [BNPP, bis-4-nitrophenyl phosphate, reference compound]",1.8,99.1 ± 0.9,,,,,,,,,,,
"C=C[c-]1cccc1.[Fe+2].c1ccc(-[c-]2cccc2)nc1 [7a, 1-(Pyridin-2-yl)-1′-Vinylferrocene]",,18.5 ± 1.6,16.5 ± 1.3,8.4 ± 0.3,2.60 ± 0.03,2.60 ± 0.08,84.6 ± 7.5,2.13 ± 0.03,9.6 ± 0.7%,20.1 ± 1.6,,,
"Cc1c(C)c2c(c(C)c1O)CCC(C)(C(=O)O)O2 (stereo not shown) [Trolox, reference compound]",,,,20.1 ± 1.2,,1.0,,1.0,,,,,
C=C(C)[c-]1cccc1.[Fe+2].c1ccc2[nH+]c(-[c-]3cccc3)ccc2c1 [5bp],,,,,4.30 ± 0.20,,,,,,3.13 ± 1.7,,
C=C(C)[c-]1cccc1.[Fe+2].c1ccc2c(-[c-]3cccc3)c3ccccc3[nH+]c2c1 [5cp],,,,,1.35 ± 0.06,,,,,,2.45 ± 0.14,,
C=C(C)[c-]1cccc1.[Fe+2].c1ccc(-[c-]2cccc2)nc1 [5a],,,,9.4 ± 0.5,2.20 ± 0.10,2.2 ± 0.1,62.4 ± 4.9,2.85 ± 0.13,zero,,,4.4 ± 1.1,18.3 ± 1.6
[Fe+2].c1cc[cH-]c1.c1ccc2c(-[c-]3cccc3)c3ccccc3[nH+]c2c1 [1cp],,,,,1.50 ± 0.08,,,,,,1.59 ± 0.17,,
C=C[c-]1cccc1.[Fe+2].c1ccc2c(-[c-]3cccc3)c3ccccc3[nH+]c2c1 [7cp],,,,,,,,,,,1.36 ± 0.01,,
C=C[c-]1cccc1.[Fe+2].c1ccc2[nH+]c(-[c-]3cccc3)ccc2c1 [7bp],,,,,,,,,,,2.21 ± 0.02,,
"C=C[c-]1cccc1.[Fe+2].c1ccc2c(-[c-]3cccc3)c3ccccc3nc2c1 [7c, 1-(Acridin-9-yl)-1′-Vinylferrocene]",,14.1 ± 1.5,,6.9 ± 0.3,,2.9 ± 0.1,86.9 ± 6.1,1.36 ± 0.01,10.4 ± 0.8%,,,22.8 ± 1.8,7.6 ± 1.1
"C=C(C)[c-]1cccc1.[Fe+2].c1cc[cH-]c1 [compound 8, isopropenylferrocene, reference compound]",,2.9 ± 0.6,,26.3 ± 1.5,0.73 ± 0.04,0.73 ± 0.04,,1.1 ± 0.1,zero,,1.10 ± 0.10,,3.9 ± 0.8
[Fe+2].c1cc[cH-]c1.c1ccc(-[c-]2cccc2)[nH+]c1 [1ap],,,,,2.10 ± 0.10,,,,,,2.05 ± 0.02,,
[Fe+2].c1cc[cH-]c1.c1ccc(-[c-]2cccc2)nc1 [1a],,17.5 ± 1.3,,10.8 ± 0.6,2.10 ± 0.10,2.1 ± 0.1,43.4 ± 3.4,2.05 ± 0.02,zero,,,,20.3 ± 1.4
"C=C(C)[c-]1cccc1.[Fe+2].c1cc[c-](-c2ccnnc2)c1 [5e, 1-Isopropenyl-1′-(Pyridazin-4-yl)Ferrocene]",,,,9.3 ± 0.4,,2.5 ± 0.2,48.6 ± 3.5,2.65 ± 0.02,zero,,,,
"[Fe+2].c1cc[cH-]c1.c1cc[cH-]c1 [Fc, ferrocene]",,4.2 ± 0.7,,32.9 ± 1.9,0.57 ± 0.03,0.57 ± 0.03,3.5 ± 0.4,0.79 ± 0.02,zero,,0.79 ± 0.02,9.6 ± 1.4,6.7 ± 1.0
[Fe+2].c1cc[cH-]c1.c1ccc2[nH+]c(-[c-]3cccc3)ccc2c1 [1bp],,,,,4.20 ± 0.20,,,,,,2.21 ± 0.01,,
[Fe+2].c1cc[cH-]c1.c1ccc2c(-[c-]3cccc3)c3ccccc3nc2c1 [1c],,,,14.6 ± 0.3,,1.50 ± 0.08,71.0 ± 4.9,1.59 ± 0.17,11.2 ± 0.9%,,,6.5 ± 0.8,21.2 ± 1.6
"C=C[c-]1cccc1.[Fe+2].c1cc[cH-]c1 [compound 9, vinylferrocene, reference compound]",,23.4 ± 2.1,,19.4 ± 0.1,1.00 ± 0.04,1.00 ± 0.04,44.9 ± 3.1,1.04 ± 0.02,zero,,1.04 ± 0.02,4.2 ± 0.9,
C=C(C)[c-]1cccc1.[Fe+2].c1ccc2c(-[c-]3cccc3)c3ccccc3nc2c1 [5c],,,,15.8 ± 0.8,,1.35 ± 0.06,90.1 ± 7.2,2.45 ± 0.14,10.5 ± 0.9%,96.7 ± 6.6,,36.7 ± 3.3,
C=C(C)[c-]1cccc1.[Fe+2].c1ccc(-[c-]2cccc2)[nH+]c1 [5ap],,,,,2.20 ± 0.10,,,,,,2.85 ± 1.3,,
C=C[c-]1cccc1.[Fe+2].c1ccc(-[c-]2cccc2)[nH+]c1 [7ap],,,,,2.60 ± 0.03,,,,,,2.13 ± 0.03,,
"[Fe+2].c1cc[c-](-c2ccnnc2)c1.c1cc[cH-]c1 [1e, 1-(pyridazin-4-yl)ferrocene]",,,,9.2 ± 0.5,,2.3 ± 0.1,53.3 ± 3.7,1.72 ± 0.02,zero,,,,13.1 ± 1.4
